Measured values reported in the NIST ThermoML archive (doi:10.1021/je034102r).

Assay: molar heat capacity at constant pressure
Conditions: 101.33 kPa, Liquid, heat bridge-scanning calorimeter

CCCCn1cc[n+](C)c1.F[P-](F)(F)(F)(F)F [1-butyl-3-methylimidazolium hexafluorophosphate]
Conditions	molar heat capacity at constant pressure [J/K/mol]
422.55 K	478.28
422.69 K	477.99
422.82 K	477.71
422.95 K	477.71
423.09 K	477.99
423.22 K	478.56
423.52 K	477.71
423.65 K	477.43
423.79 K	477.71
423.92 K	477.71
424.05 K	477.71
424.2 K	477.99
424.34 K	478.28
424.47 K	478.56
424.61 K	478.85
424.74 K	478.28
424.87 K	478.28
425.17 K	478.85
425.3 K	478.85
425.43 K	478.56
425.57 K	478.28
425.7 K	478.85
425.84 K	479.42
425.97 K	480.84
426.11 K	481.4
426.24 K	480.55
426.54 K	479.7
426.67 K	479.42
426.81 K	479.13
426.94 K	479.42
427.08 K	479.42
427.21 K	479.42
427.35 K	479.13
427.48 K	479.13
427.62 K	478.85
427.75 K	479.13
427.89 K	479.13
428.18 K	479.13
428.32 K	479.7
428.45 K	479.98
428.59 K	479.98
428.72 K	479.98
428.85 K	479.7
428.99 K	479.7
429.12 K	479.42
429.26 K	479.42
429.56 K	479.7
429.69 K	479.7
429.83 K	480.27
429.96 K	480.55
430.1 K	480.55
430.23 K	480.55
430.37 K	481.12
430.51 K	480.84
430.65 K	480.55
430.78 K	480.55
430.92 K	480.55
431.21 K	480.27
431.35 K	480.27
431.48 K	480.55
431.62 K	481.12
431.75 K	481.4
431.89 K	481.69
432.02 K	481.12
432.16 K	481.12
432.29 K	480.84
432.59 K	481.12
432.72 K	481.12
432.86 K	481.12
432.99 K	481.12
433.13 K	481.12
433.27 K	481.12
433.4 K	481.12
433.54 K	481.4
433.67 K	482.83
433.81 K	484.25
433.95 K	483.96
434.24 K	482.54
434.37 K	482.54
434.51 K	483.11
434.65 K	483.11
434.78 K	482.83
434.92 K	482.54
435.05 K	482.54
435.19 K	482.26
435.32 K	482.26
435.62 K	482.83
435.76 K	483.11
435.9 K	483.11
436.03 K	483.39
436.17 K	483.39
436.3 K	483.11
436.44 K	483.68
436.57 K	483.96
436.71 K	483.39
436.85 K	483.68
